Laboratory results reported in patent publication US11634452B2, “Compounds for treating neurodegenerative disorders” (ETHNODYNE, priority 2017, dated 2023).
“Also recorded” adds a separate entry of the source.

Tested on: primary rat dopaminergic neurons (TH positive neurons) injured with 6-OHDA
Test: Neuroprotective effect following exposure to 6-OHDA, with or without pathway inhibitors
Format: cell-based
Procedure: This study investigated the mode of action of CR777 on rat primary mesencephalic cultures following exposure to 6-OHDA. The effect of CR777 on level of GDNF and BDNF mRNA was investigated after 24 h 6-OHDA incubation and CR777. The main pathways of survival, regulation of the apoptosis and neuronal growth were investigated in presence of CR777 and inhibitors of these different pathways. The following pathways were investigated using antagonists of different proteins of interest: • RAS (small GTPase)/RAF (proto-oncogene Serine/threonine kinase); • Peroxisome proliferator-activated receptor gamma (PPAR-γ) (nuclear receptor) • The Pi3K/AKT/mTor (cell signaling pathway that plays a key role in cellular homeostasis through its role in regulation of apoptosis, cell growth, cell cycle). • NO (nitric oxide) pathway
Rat dopaminergic neurons were cultured as described in Example 4.
On day 6 of culture, the medium was removed and fresh medium was added, without or with 6-OHDA (Sigma, Batch: 083M4624V) at 20 μM diluted in control medium and let for 48 h. In parallel, all inhibitors were solved in culture medium and were added 2 h before the 6-OHDA application (namely 1 h before test compounds application).
CR777 was solved in DMSO at 10 mM, diluted in culture medium and then pre-incubated with mesencephalic neurons 1 hour before the 6-OHDA application (48 h). 6 wells per condition were assessed.
For survival and α-syn aggregation, compound was tested on 1 culture in a 96 well-plate (6 wells per condition), was pre-incubated 1 hour before 6-OHDA and let for 48 hours.
The following conditions were assessed: • Control (culture medium) • +6-OHDA (20 μM, 48 h) • +6-OHDA (20 μM, 48 h)+CR777 1 μM • +6-OHDA (20 μM, 48 h)+CR777 100 nM • +6-OHDA (20 μM, 48 h)+CR777 10 nM • +6-OHDA (20 μM, 48 h)+CR777 1 nM
For pathway investigation, the compound was tested on one primary dopaminergic culture in 96 well plates (6 wells per conditions).
Inhibitors were pre-incubated for 2 hours before 6-OHDA application and CR777 was pre-incubated 1 hour before 6-OHDA application.
The antagonists/inhibitors used in the experiments are the following: • FTS: farnesylthiosalicylic acid selectively disrupts the association of chronically active Ras proteins with the plasma membrane. • BEZ-235: dual PI3K/mTOR inhibitor. • T0070907: selective PPAR-γ antagonist • L-NAME (Nitro-L-arginine methyl ester): precursor to NOS inhibitor, L-NNA—requires bioactivation to become a fully functional inhibitor. • ABT-199: selective inhibitor of Bcl-2.
48 hours after intoxication, the cell culture supernatant was taken off and the dopaminergic neurons were fixed by a solution of 4% paraformaldehyde in PBS, pH=7.3 for 20 min at room temperature.
After permeabilization with 0.1% of saponin, cells were incubated for 2 hours with:
monoclonal Anti-Tyrosine Hydroxylase (TH) antibody produced in mouse at dilution of 1/10000 in PBS containing 1% FCS, 0.1% saponin,
polyclonal anti-α-syn antibody produced in rabbit at dilution of 1/200 for 2 h at room temperature.
For each condition, 20 pictures/well (representative of ˜the all well area) were automatically taken using ImageXpress (Molecular Devices) with 10× magnification. All images were taken with the same conditions. Analysis were automatically performed by using Custom Module Editor (Molecular Devices).
The following endpoint was investigated for each culture well: • The total dopaminergic neuron survival (TH staining), • The total area of α-syn on TH positive neuron (overlapping α-syn/TH)
After permeabilization with 0.1% of saponin, cells were incubated for 2 hours with monoclonal Anti-Tyrosine Hydroxylase (TH) antibody produced in mouse at dilution of 1/10000 in PBS containing 1% FCS, 0.1% saponin, for 2 h at room temperature.
The total dopaminergic neuron survival (TH staining) was investigated for each culture well.

SMILES: CC1=C(CO)C(=O)O[C@@H]([C@@H](C)[C@H]2CCC3C4C[C@H](SC[C@H](NC(=O)CC[C@@H](N)C(=O)O)C(=O)NCC(=O)O)[C@]5(O)[C@@H](O)C=CC(=O)[C@]5(C)C4CC[C@@]32C)C1 (some centres unmarked) [CR777]
- neuroprotective effect (TH neuron survival) in presence of Bcl2 pathway inhibitor (CR777 10 nM + ABT 199 (5 μM), 6-OHDA 20 μM): did not induce any changes
- neuroprotective effect (TH neuron survival) in presence of PI3K/AKT/mTOR pathway inhibitor (CR777 10 nM + BEZ235 (40 nM), 6-OHDA 20 μM): fully abolished
- neuroprotective effect (TH neuron survival) in presence of Ras/Raf pathway inhibitor (CR777 10 nM + FTS (4 μM), 6-OHDA 20 μM): did not induce any changes
- neuroprotective effect (TH neuron survival) in presence of nNOS pathway inhibitor (CR777 10 nM + L-NAME (100 μM), 6-OHDA 20 μM): did not induce any changes
- neuroprotective effect (TH neuron survival) in presence of PPARγ pathway inhibitor (CR777 10 nM + T0070907 (1 μM), 6-OHDA 20 μM): no effect was observed
- TH positive neuron survival (CR777 10 nM added 1 h before 6-OHDA (20 μM, 48 h), bell shape curve): significantly protected neurons from death; also recorded: significant protective effect; also recorded: able to protect TH positive neurons
- α-syn aggregation in TH positive neurons (CR777 10 and 100 nM, 6-OHDA 20 μM, 48 h): able to reduce the aggregation; also recorded: partially protected
- dopaminergic neurite network (all concentrations tested (1 nM to 1 μM), 6-OHDA 20 μM, 48 h): significant protective effect
